Data as given in patent publication US11512042B2, “Enamine compounds for absorbance of electromagnetic energy” (Commonwealth Scientific and Industrial Research Organisation, priority 2015, dated 2022).

Experiment: UV absorbance spectrum in solution (λmax, λcrit, extinction coefficients)
Type: physicochemical
Conditions: for λcrit: critical wavelength; for E (1%, 1 cm): mass extinction coefficient; for ε: molar extinction coefficient, in M-1 cm-1 (unit assumed)
Excerpt: FIG. 1 is a graphical representation of the absorbance of compounds 142 and 143 measured in a 10 mm cuvette as 0.001% solutions in methanol (142 is the uppermost trace at peak point of approximately 330 nm); The synthesised benzoyl functionalised compounds and their spectroscopic properties can be seen in table 2 wherein; breakthrough denotes the value in nm where transmittance increases beyond 1%; steepness refers to the distance in nm over which transmittance increases from 1 to 80% (a higher value indicates a less steep transition from absorbing to transmitting and is generally unfavourable); and ^a denotes an average of multiple measurements. As a general comment, it can be noted that the benzoyl substituted compounds gave similar absorbance maxima to the corresponding trifluoroacetyl derivative.

SMILES	λmax [nm]	λcrit [nm]	E (1%, 1 cm)	ε
O=C(/C(=C\N(Cc1ccccc1)c1ccccc1)c1ccccc1)C(F)(F)F [Compound 162]	329	365	620	23495
O=C(/C(=C\N1CCCc2ccccc21)c1ccccc1)C(F)(F)F [Compound 163]	354	383	811	26848
C=CCN(/C=C(\C(=O)C(F)(F)F)c1ccccc1)c1ccccc1 [Compound 172]	331	365	673	22290
CCN(/C=C(\C(=O)C(F)(F)F)c1ccccc1)c1ccccc1C [Compound 177]	320	354	707	23543
CCN(/C=C(\C(=O)C(F)(F)F)c1ccccc1)c1cccc(C)c1 [Compound 186]	331	367	709	23605
CCN(/C=C(\C(=O)C(F)(F)F)c1ccccc1)c1cccc2ccccc12 [Compound 189]	324	357	634	23400
CCN(/C=C(\C(=O)C(F)(F)C(F)(F)C(F)(F)C(=O)/C(=C\N(CC)c1ccccc1)c1ccccc1)c1ccccc1)c1ccccc1 [Compound 190]	330	370	616	40027
O=C(/C(=C\N1CCCCC1)c1ccccc1)C(F)(F)F [Compound 192]	322	353	884	25028
O=C(/C(=C\N1CCCC1)c1ccccc1)C(F)(F)F [Compound 193]	323	354	769	20673
O=C(/C(=C\N1CCc2ccccc2C1)c1ccccc1)C(F)(F)F [Compound 194]	321	352	687	22743
O=C(/C(=C\N1CCN(/C=C(/C(=O)C(F)(F)F)c2ccccc2)CC1)c1ccccc1)C(F)(F)F [Compound 195]	339	360	689	33248
CCCN(/C=C(\C(=O)C(F)(F)F)c1ccccc1)c1ccc(N(/C=C(\C(=O)C(F)(F)F)c2ccccc2)CCC)cc1 [Compound 196]	344	378	714	41997
CCOc1ccc(/C(=C/N(CC)c2ccccc2)C(=O)C(F)(F)F)cc1 [Compound 197]	335	369	1166	42359
O=C(/C(=C\N1CCc2cc(F)ccc21)c1ccccc1)C(F)(F)F [Compound 198]	368	389	890	29804
Cc1cccc2c1N(/C=C(\C(=O)C(F)(F)F)c1ccccc1)CC2 [Compound 199]	360	386	975	32273
O=C(/C(=C\N1CCc2ccc([N+](=O)[O-])cc21)c1ccccc1)C(F)(F)F [Compound 202]	355	387	903	32693

SMILES	λmax [nm]	λcrit [nm]	E (1%, 1 cm)	ε
Cc1ccc2c(c1)CCN2/C=C(\C(=O)C(F)(F)F)c1ccccc1 [Compound 205]	371	391	1108	36692
O=C(/C(=C\N1CCc2cc([N+](=O)[O-])ccc21)c1ccccc1)C(F)(F)F [Compound 206]	398	396	1390	50315
O=C(/C(=C\N1CCOCC1)c1ccccc1)C(F)(F)F [Compound 209]	320	351	855	24356
O=C(/C(=C\N1CCCN(/C=C(/C(=O)C(F)(F)F)c2ccccc2)CC1)c1ccccc1)C(F)(F)F [Compound 210]	326	356	819	40611
CC1CCc2ccccc2N1/C=C(\C(=O)C(F)(F)F)c1ccccc1 (stereo not shown) [Compound 211]	350	380	837	28907
O=C(/C(=C\N1CCc2cc(Br)ccc21)c1ccccc1)C(F)(F)F [Compound 214]	371	390	994	39265
CCN(/C=C(\C(=O)C(F)(F)F)c1ccccc1)c1ccc(Br)cc1 [Compound 216]	332	367	651	25865
O=C(/C(=C\N1CCCCc2ccccc21)c1ccccc1)C(F)(F)F [Compound 217]	324	359	843	29114
CCN(CCOC(=O)c1ccc2c(c1)CCN2/C=C(\C(=O)C(F)(F)F)c1ccccc1)C(=O)OC(C)(C)C [Compound 218]	375	391	833	44357
CN(/C=C(\C(=O)C(F)(F)F)c1ccccc1)c1ccc([N+](=O)[O-])cc1 [Compound 219]	376	391	710	24860
CCCCC(CC)COc1ccc(N(/C=C(\C(=O)C(F)(F)F)c2ccccc2)CC)cc1 (stereo not shown) [Compound 220]	332	371	532	23819
CCCCC(CC)COc1cccc(N(/C=C(\C(=O)C(F)(F)F)c2ccccc2)CC)c1 (stereo not shown) [Compound 221]	332	366	490	21876
Cc1ccccc1N(/C=C(\C(=O)C(F)(F)F)c1ccccc1)c1ccccc1 [Compound 223]	344	377	679	25885
CCN(/C=C(\C(=O)C(F)(F)F)c1ccccc1)c1cccc(Br)c1 [Compound 225]	332	366	609	24181
CCN(/C=C(\C(=O)C(F)(F)F)c1ccccc1)CCOC(=O)c1ccc2c(c1)CCN2/C=C(\C(=O)C(F)(F)F)c1ccccc1 [Compound 226]	374	388	685	43151
